Where “and” joins values, the source holds several entries; their conditions need not be identical. Identical values can stand only once. Inconclusive results and toxic doses are left out. Square brackets hold non-standard residues; d marks the D form. Peptide text beside a SMILES is read from it. ξ: configuration not given here. ξPhe(4-N(CH2CH2Cl)2) = NC(Cc1ccc(N(CCCl)CCCl)cc1)C(=O)O
Test system: P388 leukemia ip, CD2F1 mice, survival T/C
Assay: NCI In Vivo Anticancer Drug Screen. Data for tumor model P388 Leukemia (intraperitoneal) in CD2F1 (CDF1) mice
Settings: endpoint: median survival time, higher = longer survival
Procedure, shortened: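 Mice carrying the transplanted tumor received test compound or vehicle. Survival was recorded in each group, and the value is the treated-group measurement divided by that of the vehicle-treated control group.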

[1] = dose: 12.5 mg/kg/injection, schedule: Q01DX009 (ip), vehicle: other
[2] = dose: 25.0 mg/kg/injection, schedule: Q01DX009 (ip), vehicle: other
[3] = dose: 50.0 mg/kg/injection, schedule: Q01DX005 (ip), vehicle: saline with Tween-80
[4] = dose: 100.0 mg/kg/injection, schedule: Q01DX005 (ip), vehicle: saline with Tween-80
[5] = dose: 200.0 mg/kg/injection, schedule: Q01DX005 (ip), vehicle: saline with Tween-80
[6] = dose: 50.0 mg/kg/injection, schedule: Q01DX005 (ip), vehicle: Klucel (hydroxypropylcellulose) (HPC)
[7] = dose: 100.0 mg/kg/injection, schedule: Q01DX005 (ip), vehicle: Klucel (hydroxypropylcellulose) (HPC)
[8] = dose: 200.0 mg/kg/injection, schedule: Q01DX005 (ip), vehicle: Klucel (hydroxypropylcellulose) (HPC)
[9] = dose: 60.0 mg/kg/injection, schedule: Q01DX005 (ip), vehicle: saline with Tween-80
[10] = dose: 120.0 mg/kg/injection, schedule: Q01DX005 (ip), vehicle: saline with Tween-80
[11] = dose: 240.0 mg/kg/injection, schedule: Q01DX005 (ip), vehicle: saline with Tween-80
[12] = dose: 50.0 mg/kg/injection, schedule: Q01DX009 (ip), vehicle: saline with Tween-80
[13] = dose: 50.0 mg/kg/injection, schedule: Q01DX009 (ip), vehicle: saline
[14] = dose: 100.0 mg/kg/injection, schedule: Q01DX009 (ip), vehicle: saline with Tween-80
[15] = dose: 100.0 mg/kg/injection, schedule: Q01DX009 (ip), vehicle: saline

Compound: C1=C[N-]c2c3c(ccc2=C1)=CC=C[N-]3.C1=C[N-]c2c3c(ccc2=C1)=CC=C[N-]3.[Cl][Ru][Cl]
- T/C (dose: 1.56 mg/kg/injection, schedule: Q01DX005 (ip), vehicle: saline with Tween-80): 88 % of control
- T/C (dose: 3.13 mg/kg/injection, schedule: Q01DX005 (ip), vehicle: saline with Tween-80): 111 % of control
- T/C (dose: 6.25 mg/kg/injection, schedule: Q01DX005 (ip), vehicle: saline with Tween-80): 104 % of control

Compound: COC1OC2COC(c3ccccc3)OC2C(OC(C)=O)C1OC(C)=O (centres undefined)
- T/C [1]: 98 % of control
- T/C [2]: 99 % of control
- T/C (dose: 50.0 mg/kg/injection, schedule: Q01DX009 (ip), vehicle: other): 100 % of control
- T/C (dose: 100.0 mg/kg/injection, schedule: Q01DX009 (ip), vehicle: other): 95 % of control
- T/C (dose: 200.0 mg/kg/injection, schedule: Q01DX009 (ip), vehicle: other): 100 % of control

Compound: CC(=O)O/N=C(C)/C(C)=N/Nc1ccccc1
- T/C [3]: 93 % of control
- T/C [4]: 89 % of control
- T/C [5]: 87 % of control

Compound: O=C1NN2CCN=C2c2ccncc21
- T/C (dose: 50.0 mg/kg/injection, schedule: Q01DX005 (ip), vehicle: saline): 97 % of control
- T/C (dose: 100.0 mg/kg/injection, schedule: Q01DX005 (ip), vehicle: saline): 103 % of control
- T/C (dose: 200.0 mg/kg/injection, schedule: Q01DX005 (ip), vehicle: saline): 100 % of control

Compound: CCOC1=NC2(c3ccccc3)c3ccccc3SC12C (centres undefined)
- T/C [6]: 98 % of control
- T/C [7]: 100 % of control
- T/C [8]: 93 % of control

Compound: CC1C=Cc2ccccc2NC1C (centres undefined)
- T/C [9]: 101 % of control
- T/C [10]: 102 % of control
- T/C [11]: 97 % of control

Compound: N#C/C(=C\c1ccc(Cl)cc1)c1ccccc1
- T/C [12]: 96 % of control
- T/C [13]: 100 % of control
- T/C [14]: 95 % of control
- T/C [15]: 98 % of control and 96 % of control
- T/C (dose: 200.0 mg/kg/injection, schedule: Q01DX009 (ip), vehicle: saline with Tween-80): 98 % of control
- T/C (dose: 200.0 mg/kg/injection, schedule: Q01DX009 (ip), vehicle: saline): 99 % of control and 92 % of control
- T/C (dose: 400.0 mg/kg/injection, schedule: Q01DX009 (ip), vehicle: saline with Tween-80): 100 % of control
- T/C (dose: 400.0 mg/kg/injection, schedule: Q01DX009 (ip), vehicle: saline): 90 % of control and 91 % of control

Compound: NC(N)=NCC1CCCCCCN1 (centres undefined)
- T/C (dose: 12.5 mg/kg/injection, schedule: Q01DX009 (ip), vehicle: saline): 106 % of control
- T/C (dose: 25.0 mg/kg/injection, schedule: Q01DX009 (ip), vehicle: saline): 100 % of control
- T/C [13]: 104 % of control
- T/C [15]: 104 % of control

Compound: CSc1ncc(Br)c(Sc2nccn2C)n1
- T/C [9]: 112 % of control
- T/C [10]: 117 % of control
- T/C [11]: 114 % of control

Compound: CC(=O)NC(Cc1cnc[nH]1)C(=O)O (centres undefined)
- T/C (dose: 100.0 mg/kg/injection, schedule: Q04DX003 (ip), vehicle: saline with Tween-80): 98 % of control
- T/C (dose: 200.0 mg/kg/injection, schedule: Q04DX003 (ip), vehicle: saline with Tween-80): 99 % of control
- T/C (dose: 400.0 mg/kg/injection, schedule: Q04DX003 (ip), vehicle: saline with Tween-80): 100 % of control

Compound: CC(=O)Nc1cccc2c1C(=O)c1nccnc1C2=O
- T/C (dose: 12.5 mg/kg/injection, schedule: Q04DX002 (ip), vehicle: Klucel + Tween-80): 99 % of control
- T/C (dose: 25.0 mg/kg/injection, schedule: Q04DX002 (ip), vehicle: Klucel + Tween-80): 98 % of control
- T/C (dose: 50.0 mg/kg/injection, schedule: Q04DX002 (ip), vehicle: Klucel + Tween-80): 91 % of control

Compound: CCNc1nc(NC(C)C)nc(N2CCc3ccccc3C2)n1
- T/C [3]: 106 % of control
- T/C [4]: 117 % of control
- T/C [5]: 110 % of control

Compound: C=CCNC(=O)/C(C)=C(\C)c1ccccc1
- T/C (dose: 50.0 mg/kg/injection, schedule: Q04DX002 (ip), vehicle: Klucel (hydroxypropylcellulose) (HPC)): 102 % of control
- T/C (dose: 100.0 mg/kg/injection, schedule: Q04DX002 (ip), vehicle: Klucel (hydroxypropylcellulose) (HPC)): 102 % of control
- T/C (dose: 200.0 mg/kg/injection, schedule: Q04DX002 (ip), vehicle: Klucel (hydroxypropylcellulose) (HPC)): 103 % of control

Compound: O=Nc1c(O)c2ccccc2c2ccccc12
- T/C (dose: 25.0 mg/kg/injection, schedule: Q01DX005 (ip), vehicle: Klucel (hydroxypropylcellulose) (HPC)): 102 % of control
- T/C [6]: 102 % of control
- T/C [7]: 112 % of control

Compound: O=C(O)/C(Cl)=C(Cl)\C=N\Nc1ccccc1
- T/C (dose: 25.0 mg/kg/injection, schedule: Q04DX002 (ip), vehicle: saline with Tween-80): 100 % of control
- T/C (dose: 50.0 mg/kg/injection, schedule: Q04DX002 (ip), vehicle: saline with Tween-80): 102 % of control
- T/C (dose: 100.0 mg/kg/injection, schedule: Q04DX002 (ip), vehicle: saline with Tween-80): 100 % of control

Compound: O=[N+]([O-])c1c(NC2(CO)CCCC2)ncnc1NC1(CO)CCCC1
- T/C (dose: 65.5 mg/kg/injection, schedule: Q04DX003 (ip), vehicle: Klucel (hydroxypropylcellulose) (HPC)): 97 % of control
- T/C (dose: 131.0 mg/kg/injection, schedule: Q04DX003 (ip), vehicle: Klucel (hydroxypropylcellulose) (HPC)): 105 % of control
- T/C (dose: 262.0 mg/kg/injection, schedule: Q04DX003 (ip), vehicle: Klucel (hydroxypropylcellulose) (HPC)): 102 % of control

Compound: CCOC(=O)C(Cc1ccc(N(CCCl)CCCl)cc1)NC(=O)C(Cc1ccccc1)NC(=O)C(NC(=O)CNC(=O)C1CCCN1)C(C)C (centres undefined) (H-PGVF[ξPhe(4-N(CH2CH2Cl)2)]-OEt; configuration not given here)
- T/C (dose: 10.0 mg/kg/injection, schedule: Q04DX003 (ip), vehicle: water): 150 % of control
- T/C (dose: 20.0 mg/kg/injection, schedule: Q04DX003 (ip), vehicle: water): 173 % of control
- T/C (dose: 40.0 mg/kg/injection, schedule: Q04DX003 (ip), vehicle: water): 193 % of control

Compound: O=C(NCCCN1CC1)C(=O)NCCCN1CC1
- T/C (dose: 0.78 mg/kg/injection, schedule: Q01DX009 (ip), vehicle: saline): 156 % of control
- T/C (dose: 1.56 mg/kg/injection, schedule: Q01DX009 (ip), vehicle: saline): 190 % of control
- T/C (dose: 3.13 mg/kg/injection, schedule: Q01DX009 (ip), vehicle: saline): 190 % of control

Compound: CCCCCNC(=O)C(O)C(O)C(=O)NCCCCC (centres undefined)
- T/C [3]: 104 % of control
- T/C [4]: 101 % of control
- T/C [5]: 90 % of control

Compound: COc1cccc2c1C(=O)c1c(O)c3c(c(O)c1C2=O)CC(O)(C1(O)CSC(C)=N1)CC3O (centres undefined)
- T/C (dose: 1.56 mg/kg/injection, schedule: Q01DX009 (ip), vehicle: other): 102 % of control
- T/C (dose: 3.13 mg/kg/injection, schedule: Q01DX009 (ip), vehicle: other): 104 % of control
- T/C (dose: 6.25 mg/kg/injection, schedule: Q01DX009 (ip), vehicle: other): 104 % of control
- T/C [1]: 105 % of control
- T/C [2]: 98 % of control
- T/C (dose: 25.0 mg/kg/injection, schedule: Q01DX009 (ip), vehicle: water): 101 % of control
- T/C (dose: 50.0 mg/kg/injection, schedule: Q01DX009 (ip), vehicle: water): 101 % of control
- T/C (dose: 100.0 mg/kg/injection, schedule: Q01DX009 (ip), vehicle: water): 121 % of control

Compound: CC(Nc1ccccc1)C(=Nc1ccccc1)Nc1ccccc1 (centres undefined)
- T/C [6]: 110 % of control
- T/C [7]: 113 % of control
- T/C [8]: 113 % of control

Compound: CCCCCCC(=O)N1SC(NC(=O)OC)=Nc2ccccc21
- T/C (dose: 50.0 mg/kg/injection, schedule: Q01DX005 (ip), vehicle: acetone): 108 % of control
- T/C (dose: 100.0 mg/kg/injection, schedule: Q01DX005 (ip), vehicle: acetone): 102 % of control
- T/C (dose: 200.0 mg/kg/injection, schedule: Q01DX005 (ip), vehicle: acetone): 102 % of control

Compound: CC(C)C(C#N)(C(=O)O)C(C)C
- T/C [12]: 95 % of control
- T/C [14]: 92 % of control

Compound: Cc1c(C)n(-c2ccccc2)c2nc(C)n(-c3ccccc3)c(=N)c12
- T/C [6]: 101 % of control
- T/C [7]: 100 % of control

Compound: O=C(/C=C/c1ccccc1)[c-]1[c-][c-][c-][c-]1.[Fe].[c-]1[c-][c-][cH-][c-]1
- T/C [6]: 96 % of control
- T/C [7]: 109 % of control
- T/C [8]: 100 % of control

Compound: C=CCCC(=O)SC(C)(C)C
- T/C (dose: 100.0 mg/kg/injection, schedule: Q04DX003 (ip), vehicle: Klucel (hydroxypropylcellulose) (HPC)): 112 % of control
- T/C (dose: 200.0 mg/kg/injection, schedule: Q04DX003 (ip), vehicle: Klucel (hydroxypropylcellulose) (HPC)): 110 % of control
- T/C (dose: 400.0 mg/kg/injection, schedule: Q04DX003 (ip), vehicle: Klucel (hydroxypropylcellulose) (HPC)): 103 % of control
